Measured values taken from patent US20240262783A1, “PHARMACEUTICAL SALT OF FINGOLIMOD, PREPARATION METHOD, PHARMACEUTICAL COMPOSITION AND USE THEREOF” (SHANGHAI BOCIMED PHARMACEUTICAL CO., LTD., priority 2021, published 2024).
In brackets after ≈: the same amount, converted by molar mass. Where a name gives a salt, the structure may show the parent alone. Read-outs that look alike come from different tables or passages of the source.

Assays:
[1] = Comparison of solubility (shaken at 37° C. for 24 h, HPLC); format: physicochemical; settings: for Solubility: 24 h; for solubility at 24 h: 37 °C, thermodynamic from solid
Method: The crystalline form 1 of Fingolimod 1-hydroxy-2-naphthoate prepared in Example 14, the crystalline form B of Fingolimod embonate prepared in Example 2, Fingolimod hydrochloride and the Fingolimod free base prepared in Example 12 were added to corresponding media described below. The mixtures were shaken at 37° C. for 24 h and filtered through 0.45 μm aqueous-phase filter membranes. The filtrates were collected for determination of solubility by high-performance liquid chromatography. The corresponding media were acetate buffer solutions at pH 3 and pH 5 and phosphate buffer solutions at pH 7 and pH 9, and the water was ultrapure water.

[2] = Comparison of solid state stability (related substances by HPLC); format: physicochemical; settings: for Solid state stability, total related substances (in words): stood in high temperature, high humidity, accelerated, illumination and long-term conditions for 10 d
Method: Method for Detecting Related Substances by HPLC [table] The crystalline form 1 of Fingolimod 1-hydroxy-2-naphthoate prepared in Example 14, the crystalline form A of Fingolimod embonate prepared in Example 3, and Fingolimod hydrochloride were stood in a high temperature (60° C.)condition, a high humidity (25° C./90% RH) condition, an accelerated (40° C./75% RH) condition, an illumination (1.2× 10^6 Lux·hr) condition, and a long-term (25° C./60% RH) condition, and samples were taken on day 0, day 5, and day 10 for related substance detection by HPLC.

[3] = male, SD, rat, in vivo, po, 0.1 mg/kg
Method: (§1) Six male SD rats were divided into two groups. […] In the whole study, the animals in the intramuscular injection group were given ad libitum access to food and water, and those in the oral group were fasted overnight before administration and given access to food at 4 h post-dose.
(§2) Collection of plasma sample: about 150 μL of blood was collected from the jugular vein (whole blood was centrifuged within 30 min to isolate plasma) and placed in a tube containing anticoagulant EDTA-K2, and after treatment, plasma was stored in a freezer at −70° C. before use.
(§3) Pretreatment of plasma sample: to 30 μL of plasma sample, 200 μL of internal standard solution (40 ng/mL Glipizide acetonitrile solution) was added; the mixture was vortexed for 1 min and centrifuged at 5800 rpm at 4° C. for 10 min; 100 μL of supernatant was transferred to a new plate 5 μL of the solution was taken for LC-MS/MS.

in vivo = settings: male, SD, rat, po, 0.1 mg/kg
Method: as §1, §2, §3

[4] = Pharmacokinetic study in male SD rats (plasma Fingolimod by LC-MS/MS)
Method: as §1, §2, §3

[5] = Accelerated (40° C./75% RH), Day 5
[6] = Accelerated (40° C./75% RH), Day 10
[7] = Day 0 (baseline, all conditions)
[8] = High humidity (25° C./90% RH), Day 5
[9] = High humidity (25° C./90% RH), Day 10
[10] = High temperature (60° C.), Day 5
[11] = High temperature (60° C.), Day 10
[12] = Illumination (1.2× 10^6 Lux·hr), Day 5
[13] = Illumination (1.2× 10^6 Lux·hr), Day 10
[14] = Long-term (25° C./60% RH), Day 5
[15] = Long-term (25° C./60% RH), Day 10
[16] = injection group, intramuscular 3 mg/kg

Row | Compound | Solubility ([1]; Water (ultrapure), 37° C.) | Solubility ([1]; pH 3 acetate buffer, 37° C.) [µg/mL] | Solubility ([1]; pH 5 acetate buffer, 37° C.) [µg/mL] | Changes in total related substances relative to day 0 [2, 5] [%] | Changes in total related substances relative to day 0 [2, 6] [%] | Changes in total related substances relative to day 0 [2, 7] [%] | Changes in total related substances relative to day 0 [2, 8] [%] | Changes in total related substances relative to day 0 [2, 9] [%] | Changes in total related substances relative to day 0 [2, 10] [%] | Changes in total related substances relative to day 0 [2, 11] [%] | Changes in total related substances relative to day 0 [2, 12] [%] | Changes in total related substances relative to day 0 [2, 13] [%] | Changes in total related substances relative to day 0 [2, 14] [%] | Changes in total related substances relative to day 0 [2, 15] [%] | Solubility ([1]; pH 7 phosphate buffer, 37° C.) [µg/mL] | Solubility ([1]; pH 9 phosphate buffer, 37° C.) [µg/mL] | Solid state stability, total related substances (in words) [2] | other results
1 | CCCCCCCCc1ccc(CCC(N)(CO)CO)cc1 [Fingolimod free base, reference compound] | about 23 μg/mL | 5561.36 (≈ 18.1 mM) | 473.53 (≈ 1.54 mM) |  |  |  |  |  |  |  |  |  |  |  |  |  |  | 
2 | CCCCCCCCc1ccc(CCC(N)(CO)CO)cc1 [Fingolimod hydrochloride, reference compound] |  |  |  | −0.07 | 0.01 | 0 | −0.07 | −0.07 | 0.03 | 0.02 | −0.04 | −0.03 | 0.04 | −0.12 |  |  |  | Behaviour of the salt in the media (in words) [1]: dissociated into the Fingolimod free base; solubility at 24 h ([1]; pH 3, aqueous buffer): > 33500 µg/mL; solubility at 24 h ([1]; pH 5, aqueous buffer): > 15600 µg/mL; solubility at 24 h ([1]; pH 7, aqueous buffer): < 0.15 µg/mL; solubility at 24 h ([1]; pH 9, aqueous buffer): < 0.15 µg/mL; solubility at 24 h ([1]; water): ~14000 µg/mL; Solubility [1]: >13900 µg/mL
3 | CCCCCCCCc1ccc(CCC(N)(CO)CO)cc1 [Fingolimod] |  |  |  |  |  |  |  |  |  |  |  |  |  |  |  |  |  | Time post-dose at which plasma concentration reached the peak value [3]: 12 h; MRT (in vivo): 12 h
4 | Fingolimod 1-hydroxy-2-naphthoate | 5.46 µg/mL | 20.07 | 9.17 | −0.09 | −0.07 | 0 | −0.04 | −0.07 | −0.05 | −0.16 | −0.05 | 0.02 | −0.17 | −0.15 | 0.54 | 0.58 | remained substantially unchanged | Cmax relative to dose (in words) ([4]; injection group 3 mg/kg versus oral group 0.1 mg/kg): did not increase in proportion to the dose; MRT [4, 16]: 288 h; Time for plasma concentration to reach a relatively steady state [4, 16]: ≤ 1 days; Time plasma concentration was maintained above 0.3 ng/ml [4, 16]: at least 15 days; Time post-dose at which plasma concentration reached the peak value ([4]; injection group, intramuscular 3 mg/kg (Example 18 sample)): 3 h; Solubility in water relative to the solubility of Fingolimod free base ([1]; water): one fourth to one fifth; Solubility in water relative to the solubility of Fingolimod hydrochloride ([1]; water): one thousandth to one twenty-six hundredth
5 | Fingolimod embonate [listing 1 of 2 here] |  |  |  | 0 | −0.11 | 0 | 0.12 | 0.11 | −0.04 | −0.21 | 0.2 | 0.3 | 0.08 | −0.01 |  |  | relatively stable in other conditions than the illumination condition where the impurities were slightly increased | 
6 | Fingolimod embonate [listing 2 of 2 here] | 0.2 µg/mL | 36.18 | 1.75 |  |  |  |  |  |  |  |  |  |  |  | 21.26 | 5.8 |  | 
